Experimental data reported in US8101616B2, “Pyridine and pyrimidine derivatives as inhibitors of histone deacetylase” (Janssen Pharmaceutica N.V., priority 2006, dated 2012).
≈ marks a conversion by molar mass, not a printed value. Like-named read-outs stand apart in the source and are kept apart here.

How the values were obtained:
[1] = system: A2780 ovarian carcinoma cells; assay: Antiproliferative activity on A2780 cells, MTT (C.2); type: cell-based; details: Homo sapiens, 96 h, four days of incubation, read-out: Cellular activity pIC50 C.2 (converted)
Protocol: Cellular activity of the compounds of formula (I) was determined on A2780 tumour cells using a […] assay for cell toxicity or survival (Mosmann Tim, Journal of Immunological Methods 65: 55-63, 1983) (see example C.2).
All compounds tested were dissolved in DMSO and further dilutions were made in culture medium. Final DMSO concentrations never exceeded 0.1% (v/v) in cell proliferation assays. Controls contained A2780 cells and DMSO without compound and blanks contained DMSO but no cells. MTT was dissolved at 5 mg/ml in PBS. A glycine buffer comprised of 0.1 M glycine and 0.1 M NaCl buffered to pH 10.5 with NaOH (1 N) was prepared (all reagents were from Merck).
The human A2780 ovarian carcinoma cells (a kind gift from Dr. T. C. Hamilton [Fox Chase Cancer Centre, Pennsylvania, USA]) were cultured in RPMI 1640 medium supplemented with 2 mM L-glutamine, 50 μg/ml gentamicin and 10% fetal calf serum. Cells were routinely kept as monolayer cultures at 37° C. in a humidified 5% CO2 atmosphere. Cells were passaged once a week using a trypsin/EDTA solution at a split ratio of 1:40. All media and supplements were obtained from Life Technologies. Cells were free of mycoplasma contamination as determined using the Gen-Probe Mycoplasma Tissue Culture kit (supplier: BioMérieux).
Cells were seeded in NUNC™ 96-well culture plates (Supplier: Life Technologies) and allowed to adhere to the plastic overnight. Densities used for plating were 1500 cells per well in a total volume of 200 μl medium. After cell adhesion to the plates, medium was changed and drugs and/or solvents were added to a final volume of 200 μl. Following four days of incubation, medium was replaced by 200 μl fresh medium and cell density and viability was assessed using an MTT-based assay. […] For each sample, the mean value for cell growth (in absorbance units) was expressed as a percentage of the mean value for cell growth of the control. […] Herein the effects of test compounds are expressed as pIC50 (the negative log value of the IC50-value) (see Table F-2).

[2] = molecular target: histone deacetylase (HeLa nuclear extracts); assay: In vitro assay for inhibition of histone deacetylase with fluorescent-labelled substrate (C.1); type: biochemical; details: Fluor de Lys substrate
Excerpt: The in vitro assay for inhibition of histone deacetylase (see example C.1) measures the inhibition of HDAC enzymatic activity obtained with the compounds of formula (I).
The HDAC Fluorescent Activity Assay/Drug Discovery Kit of Biomol (cat. No: AK-500-0001) was used. The HDAC Fluorescent Activity Assay is based on the Fluor de Lys (Fluorogenic Histone deAcetylase Lysyl) substrate and developer combination. The Fluor de Lys substrate, comprises an acetylated lysine side chain. Deacetylation of the substrate sensitizes the substrate so that, in the second step, treatment with the Fluor de Lys developer produces a fluorophore.
HeLa nuclear extracts (supplier: Biomol) were incubated at 60 μg/ml with 75 μM of substrate. The Fluor de Lys substrate was added in a buffer containing 25 mM Tris, 137 mM NaCl, 2.7 mM KCl and 1 mM MgCl2.6H2O at pH 7.4. After 30 min, 1 volume of the developer was added. The fluorophore was excited with 355 nm light and the emitted light (450 nm) was be detected on a fluorometric plate reader.
For each experiment, controls (containing HeLa nuclear extract and buffer), a blank incubation (containing buffer but no HeLa nuclear extract) and samples (containing compound dissolved in DMSO and further diluted in buffer and HeLa nuclear extract) were run in parallel. In first instance, compounds were tested at a concentration of 10^−5M. […] All sample were tested 4 times. In each test the blank value was substracted from both the control and the sample values. The control sample represented 100% of substrate deactylation. For each sample the fluorescence was expressed as a percentage of the mean value of the controls. […] Herein the effects of test compounds are expressed as pIC50 (the negative log value of the IC50-value) (see Table F-2).

[3] = Solubility at pH 2.3, chemiluminescent nitrogen detector (C.3.b); type: physicochemical
Protocol: The solubility of a compound measures the ability of a compound to stay in solution. In the first method, the ability of a compound to stay in aqueous solution upon dilution (see example C.3.a) is measured. DMSO-stock solutions are diluted with a single aqueous buffer solvent in different consecutive steps. In this method (C.3.a), mixtures are then scanned in the BD Gentest Solubility Scanner for the occurrence of precipitation. In a second method the solubility of a compound at different pH's can be measured with the use of a chemiluminescent nitrogen detector (see example C.3.b).
The solubility of a compound, at pH 2.3, can also be measured with the use of a chemiluminescent nitrogen detector (see Table F-2).

Compound	% metabolism (human, 15 min, 5 μM)	IC50 [1]	Enzymatic activity pIC50 C.1 [2]	solubility [3]	% metabolism (15 min incubation with active microsomes, reference compounds)
COc1cc(N)c(Cl)cc1C(=O)NC1CCN(CCCOc2ccc(F)cc2)CC1OC (stereo not drawn) [Cisapride]	45%	–	–	–	–
COCC(/C=C/c1ccc(F)cc1)N1CCN(c2ccc(C(=O)Nc3ccccc3N)cn2)CC1 (stereo not drawn) [Compound 1]	–	2.51 µM	<6	–	–
Nc1ccccc1NC(=O)c1cnc(N2CCN(C(/C=C/c3cccc(F)c3)CO)CC2)nc1 (stereo not drawn) [Compound 2]	–	0.251 µM	<6	–	–
Nc1ccccc1NC(=O)c1cnc(N2CCN(C(/C=C/c3ccccc3)CO)CC2)nc1 (stereo not drawn) [Compound 3]	–	0.2 µM	4.8	3700 µg/mL (≈ 8.32 mM)	–
CCCO [propanol]	–	–	–	–	25%
